The source of these data is a melting point compilation (Tetko et al.; mined from patent text by program, amines drawn as free bases though some values may be those of a salt).

As usually defined, the melting point is the temperature of the solid-liquid transition. The compound `COc1c2c(c(OC)c(OC)c1OC)CCC(CCOc1ccc(Cl)cc1)CC2` gave a melting point of 98 to 102 °C.

In the case of `CCn1cnc2c(Nc3cccc(C(=O)OC)c3)nc(Cl)nc21`, the melting point stood at 148 °C.

`CCCCCCOc1ccc(-c2ncc(Br)cn2)cn1` gave a melting point of 103 to 106 °C.

In turn, `CC(O)c1cccc(C=Cc2ccc3cc(F)ccc3n2)c1` (centres undefined) returned a melting point of 107 to 109 °C.

Compound `CCn1cc(Nc2nc(Br)cn(C)c2=O)cn1` returned a melting point of 138 to 140 °C.

For `C#CC(O)COc1ccc(F)cc1` (centres undefined), the melting point fell in the range of 46 to 47 °C.

The compound `COc1cc(O)c(C(=O)C=Cc2ccc(Cl)cc2)c(OC)c1` came in with a melting point of 167 °C.

Compound `CCCCn1ccc(-c2ccc(Oc3cc(C)nc(C)c3)cc2F)c(C#N)c1=O` returned a melting point of 170 °C.

`O=C(CCCCCBr)Nc1cc(Cl)c(O)c(Cl)c1`: the melting point was 113 to 114 °C.

Consider `CC(C)CCCC(C)C1CCC2C3CC=C4CC(O)CC(O)C4(C)C3CCC12C` (centres undefined), for which the melting point was 158 to 161 °C.

`Cc1nn(-c2ccccn2)c2nc3ccccc3c(C(N)=O)c12` had a melting point above 300 °C.

`CC(C)c1ccc(C2(NC(=O)c3ccccc3)C(=O)c3ccccc3C2=O)c(OC(=O)c2ccccc2)c1` registered a melting point of 138 to 140 °C.

Take `CC1=NN=C(c2ccc(NC=O)cc2)c2cc3c(cc2C1)OCO3`: the melting point is 152 to 154 °C.

The compound `N#Cc1cccc2c1NCCC2` returned a melting point of 75 to 76 °C.

`CCCCCCCOc1ccc(C2CC(CCCCCC)C(=O)O2)cc1` (centres undefined) had a melting point of 45.9 to 47 °C.

In the case of `Cc1ccc(C=C(C#N)c2ccccc2)cc1`, the melting point is 61 °C.

For the compound `CCCN(CCC)c1c2c(nn1C)N(c1c(C)cc(C)cc1Cl)CCC2`, the melting point is 90 to 91 °C.

With `CC(=O)NC(C)Cc1ccc(OC(C)=O)cc1` (centres undefined), the melting point fell in the range of 97.5 to 99 °C.

For the compound `CSCc1c(N)c(Br)cc(F)c1F`, the melting point lay within 60 to 61 °C.

`CCCCc1nc2c(N)nc3ccccc3c2n1CCCCCCCCNC(=O)Nc1ccccc1`: the melting point was in the range of 153 to 155 °C.

The compound `CCC(CC)Nc1cc(C(=O)OC)ccc1N1C(=O)CCC1(CO)CO` showed a melting point of 183 to 185 °C.

`O=C(O)c1ccc(CCNc2c(C(=O)O)cc(Cl)cc2[N+](=O)[O-])cc1` showed a melting point of 255 to 257 °C.

Turning to `CCOc1cc(N(CC)CC)ccc1C1(N(c2ccc(N(C)C)cc2)c2ccc(N(C)C)cc2)OC(=O)c2ccccc21` (centres undefined), the melting point lay in the range of 58 to 69 °C.

`O=C(C=Cc1ccc(F)cc1)C1CCCCC1` displayed a melting point of 44 to 46 °C.

`CN1C(=O)CCC2c3ccc(Cl)cc3CCC21` (centres undefined): the melting point stood at 82 °C.

As for `CC(=O)NC(C)Cc1ccc(CCC(=O)O)cc1` (centres undefined), the melting point was in the range of 93 to 96 °C.

Compound `CN(CCN1CCN(c2cccc3c2OCCO3)CC1)c1cnn(C)c(=O)c1Cl` had a melting point of 114 to 116 °C.

In the case of `O=C(CN1CCC(Cc2ccccc2)CC1)Nc1ccc2[nH]cnc2c1`, the melting point is 185 to 189 °C.

For the compound `Cc1[nH]c(C(=O)N2CCC(O)CC2)c(C)c1-c1nc2ccc(C(=O)c3ccccc3)cc2[nH]1`, the melting point lay in the range of 288 to 290 °C.

Compound `N#Cc1ccc2c(O)c(C(=O)NCCCCN3CCN(C(c4ccccc4)c4ccccc4)CC3)cnc2c1` came in with a melting point of 223 to 225 °C.

Take `COc1ccc(C2=CC(O)CC2)cc1OC1CCCC1` (centres undefined): the melting point was in the range of 105 to 107 °C.

The compound `CCn1c2ccc3ccccc3c2c2cccc(C)c21` displayed a melting point of 79 to 83 °C.

Turning to `Nc1cn(-c2cccnc2)nc1Br`, the melting point was 143 to 146 °C.

`CC[C@H](C)C(OCc1ccccc1)[C@H]1[C@H]([N+](=O)[O-])[C@H](c2ccsc2)N[C@@H]1C(=O)NCCC(=O)O` (some centres undefined) returned a melting point of 145 to 146 °C.

For the compound `CCC1C(=O)c2c(cc(OC)c(Cl)c2Cl)C1c1ccccc1` (centres undefined), the melting point fell in the range of 114 to 116 °C.

Turning to `CC(C)C[C@H](NC(=O)[C@H](Cc1ccccc1)NC(=O)C1CCCCC1S)C(=O)O` (some centres undefined), the melting point was in the range of 180 to 183 °C.

In turn, `Cc1cc(Nc2cncc(Nc3cccc(C#N)c3)n2)n[nH]1` showed a melting point of 260 to 262 °C.

With `Cc1c(C)c2c(c(C)c1N)CC(C)(CN1CCN(C(=O)CC(c3ccccc3)c3ccccc3)CC1)O2` (centres undefined), the melting point was 77 to 78 °C.

`COc1ccc2[nH]c(C(=O)N[C@H]3CCN(C(=O)c4cc(Cl)cc(Cl)c4)[C@H](Cc4ccccc4)C3)cc2c1` (relative stereo): the melting point amounted to 251 °C.

Compound `Cc1ccnc(NC(=O)C2=C(O)c3ccc4ccccc4c3S(=O)(=O)N2C)c1` showed a melting point of 221 °C.

In turn, `Cc1nn(-c2cc(OS(C)(=O)=O)c(Cl)cc2F)c(C)c1[N+](=O)[O-]` displayed a melting point of 150 to 152 °C.

Turning to `CC(=O)N1CCC(CCCC(=O)c2ccc3c(c2)CCN(C(=O)C(F)(F)F)CC3)CC1`, the melting point lay in the range of 101 to 102 °C.

Compound `COn1c(-c2ccccc2)nc2cnc3ccccc3c21` showed a melting point of 194 to 195 °C.

As to `COc1ccc(-c2nc(-c3ccccc3)c(-c3ccncc3)n2C)cc1`, the melting point was 193 to 194 °C.

In turn, `c1csc(-c2cccc3c(-c4cccs4)cccc23)c1` yielded a melting point of 193 to 195 °C.

On to `O=C(O)C1CCCCc2c(-c3ccc(Cl)cc3)noc2C1` (centres undefined), for which the melting point came out at 215 °C.

Consider `CC(=O)N1CCC(O)(C(=O)c2ccc(F)cc2)CC1`, for which the melting point lay in the range of 146 to 149 °C.

For `O=C(Nc1cccc2c1C(=O)c1c-2n[nH]c1-c1ccc(N2CCC(N3CCOCC3)CC2)cc1)NN1CCOCC1`, the melting point turned out to be 249 °C.

For the compound `CC(=O)Nc1nc2c(s1)CCN(Cc1ccccc1)CC2`, the melting point lay within 129 to 130 °C.

Turning to `Cc1cc(-n2ccnc2)c2cccc(OCc3c(Cl)ccc(S(=O)(=O)N4CCC[C@H]4C(=O)NCC4CCN(C)CC4)c3Cl)c2n1`, the melting point stood at 86 °C.

Regarding `C=CCc1cccc2c(=O)cc(-c3ccccc3F)oc12`, the melting point lay in the range of 78 to 81 °C.

`O=C(CS(=O)C(c1ccc(F)cc1)c1ccc(F)cc1)NO` (centres undefined) gave a melting point of 90 to 91 °C.

`OCC(CO)SCc1ccc(Cl)cc1`: the melting point is 70 to 75 °C.

`COc1ccc(CCn2ccc3ccc(-c4cccc(C(=O)NCCC#N)c4)nc32)cc1OC`: the melting point was 138 to 139 °C.

With `Clc1ccc(/C=C/C2=CCN(Cc3ccccc3)CC2)cn1`, the melting point lay in the range of 126 to 128 °C.

On to `COc1ccc2nn(C=Cc3ccc(-c4ccccc4)cc3)nc2c1`, for which the melting point was 165 to 175 °C.

For the compound `COc1ccc2c(c1)C(=O)[C@@H](O)[C@](C#Cc1ccccc1)(c1ccccc1)O2` (relative stereo), the melting point was 135 to 138 °C.

`CNC(=NS(C)(=O)=O)NCCCCc1nc(NC(N)=NCC(F)(F)F)sc1C` had a melting point of 165 to 166 °C.

Turning to `N#Cc1cn(CC(O)CCl)nc1[N+](=O)[O-]` (centres undefined), the melting point lay within 78 to 80 °C.

In turn, `CCN(Cc1ccccc1Oc1ccccc1)c1ccc(C(=O)O)nn1` came in with a melting point of 70 to 75 °C.

For the compound `O=[N+]([O-])c1ccccc1Oc1ccc(Cl)cc1Cl`, the melting point lay within 54 to 55 °C.

`O=c1cc(-c2ccoc2)c2ccc(CBr)cc2o1` displayed a melting point of 155 to 156 °C.

For the compound `COc1nc(C2CC2)nc(OC(C)C)c1C=O`, the melting point was 46 to 47 °C.

The compound `COc1ccc(C(=O)CC2CCCCC2=O)cc1` (centres undefined) registered a melting point of 98 to 99 °C.

`CCOC(=O)c1ccc(NC(=O)CNc2ccccc2F)cc1` came in with a melting point of 169 to 170 °C.

The compound `O=C(O)COc1cccc2c1Cc1sc(SCCCC(c3ccccc3)c3ccccc3)nc1-2` yielded a melting point of 110 to 112 °C.

In the case of `O=C(O)c1cccc(NCCOc2cccc3ccccc23)c1`, the melting point was in the range of 150 to 152 °C.

For the compound `Cc1c(C(=O)O)cnn1-c1c(Cl)cccc1Cl`, the melting point was 180 to 182 °C.

The compound `COCCNC(=O)c1cccc(-c2ccc(F)c3cc(Cc4cccc(S(C)(=O)=O)c4)sc23)c1` had a melting point of 158 to 159 °C.

`CCC(C)(C)c1cc(-c2cccc(CC3SC(N4CCCC4)=NC3=O)c2)ccc1O` (centres undefined) registered a melting point of 216 to 219 °C.

Consider `C=CC(O)c1ccc2cc(OCCCCCC)ccc2c1` (centres undefined), for which the melting point fell in the range of 47 to 48 °C.

With `CCOc1nn(Cc2ccc(OCc3coc(-c4ccccc4)n3)cc2)cc1CCC(=O)O`, the melting point was 135 to 136 °C.

Turning to `Cc1ccc(C(=C(C=O)c2nnnn2C)c2ccc(C)cc2F)c(F)c1`, the melting point is 154 to 155 °C.

The compound `CON(C)Cc1nc2cnc3ccccc3c2n1CC1CCOCC1` registered a melting point of 142 to 144 °C.

Consider `NNc1nc2ccc(OC(F)(F)F)cc2s1`, for which the melting point was found to be 208 °C.

Compound `CCOC(=O)CC[C@H](NC(=O)c1ccc2c(c1)CCN2Cc1cnc2nc(N)nc(N)c2n1)C(=O)OCC` returned a melting point of 168 to 170 °C.

The compound `Cc1cccc(-c2nc(C(C)C)[nH]c2-c2ccc(F)c(-c3cnn(C)c3)c2)n1` displayed a melting point of 77 to 97 °C.

For the compound `COc1cc([N+](=O)[O-])c2nc(OCc3ccc(Cl)cc3)ccc2c1`, the melting point is 130 to 134 °C.

`C[C@@H](N(CCNC(=O)OC(C)(C)C)C(=O)c1ccc(C(F)(F)F)cc1)[C@](O)(Cn1cncn1)c1ccc(F)cc1F` (relative stereo) returned a melting point of 135 to 143 °C.

For `CN(C)C1(c2cccc(F)c2)CCC(CC(=O)NCCCc2ccccc2)CC1` (centres undefined), the melting point was in the range of 119 to 122 °C.

`COc1ccc(C(O)C(F)(F)C(=O)SC(C)(C)C)cc1` (centres undefined) showed a melting point of 73 to 75 °C.

Take `CC(C)(C)n1cc(-c2ccc(Oc3ccccc3)cc2)c2c(N)ncnc21`: the melting point was in the range of 157 to 158 °C.

Consider `CN1CCSC1=NC(=O)CCC(=O)N=C1SCCN1C`, for which the melting point is 181 to 183 °C.

Regarding `CNCC(=O)N1Cc2cccc3c2N(CC3)c2ccccc21`, the melting point lay in the range of 128 to 130 °C.

Turning to `COc1ccc(CC2CC(=O)CCN2C(=O)c2cc(C(F)(F)F)cc(C(F)(F)F)c2)cc1OC` (centres undefined), the melting point was 133 °C.

`O=C(O)CCc1cnoc1-c1cc(Cl)cc(Cl)c1`: the melting point fell in the range of 143 to 144 °C.

In turn, `CCOC(=O)C(C)(C)Oc1ccc(C(=O)Cc2ccccc2)cc1` yielded a melting point of 110 to 113 °C.

In turn, `CCOC(=O)C1CCC(=O)C(Sc2ccc(C)cc2)C1` (centres undefined) showed a melting point of 87 to 89 °C.

For `NC(=O)NC(=S)Nc1ccccc1`, the melting point is 176 to 180 °C.
